# Laboratory results from PubChem BioAssay AID1963844 (Molecular Pharmacology Branch, DTP, NCI, 2024).
# Test system: 422866-222-R5-J1-PDC complex spheroid viability
# Test: Anticancer human tumor 422866-222-R5-J1-PDC patient-derived pancreatic adenocarcinoma cell line growth inhibition [POLQ]
# Settings: for IC50: curve of first compound; for viability, T/C: stronger effect = lower value
# In short: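 Patient-derived tumour cells were co-cultured with HUVEC and mesenchymal stem cells as multicellular spheroids at 37 °C. They were treated with POLQ inhibitors (novobiocin, ART-558, RP6685) alone or combined with other agents. Top concentrations were at or near clinical Cmax (otherwise 10 microM; SN-38 at 1 microM), decreasing in half-log steps.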
# [1] = second compound 0.0316 µM, first compound 0.0316 µM
# [2] = second compound 0.0316 µM, first compound 0.1 µM
# [3] = second compound 0.0316 µM, first compound 0.316 µM
# [4] = second compound 0.0316 µM, first compound 1 µM
# [5] = second compound 0.0316 µM, first compound 3.16 µM
# [6] = second compound 0.0316 µM, first compound 10 µM
# [7] = second compound 0.1 µM, first compound 0.0316 µM
# [8] = second compound 0.1 µM, first compound 0.1 µM
# [9] = second compound 0.1 µM, first compound 0.316 µM
# [10] = second compound 0.1 µM, first compound 1 µM
# [11] = second compound 0.1 µM, first compound 3.16 µM
# [12] = second compound 0.1 µM, first compound 10 µM
# [13] = second compound 0.316 µM, first compound 0.0316 µM
# [14] = second compound 0.316 µM, first compound 0.1 µM
# [15] = second compound 0.316 µM, first compound 0.316 µM
# [16] = second compound 0.316 µM, first compound 1 µM
# [17] = second compound 0.316 µM, first compound 3.16 µM
# [18] = second compound 0.316 µM, first compound 10 µM
# [19] = second compound 1 µM, first compound 0.0316 µM
# [20] = second compound 1 µM, first compound 0.1 µM
# [21] = second compound 1 µM, first compound 0.316 µM
# [22] = second compound 1 µM, first compound 1 µM
# [23] = second compound 1 µM, first compound 3.16 µM
# [24] = second compound 1 µM, first compound 10 µM
# [25] = second compound 3.16 µM, first compound 0.0316 µM
# [26] = second compound 3.16 µM, first compound 0.1 µM
# [27] = second compound 3.16 µM, first compound 0.316 µM
# [28] = second compound 3.16 µM, first compound 1 µM
# [29] = second compound 3.16 µM, first compound 3.16 µM
# [30] = second compound 3.16 µM, first compound 10 µM
# [31] = second compound 10 µM, first compound 0.0316 µM
# [32] = second compound 10 µM, first compound 0.1 µM
# [33] = second compound 10 µM, first compound 0.316 µM
# [34] = second compound 10 µM, first compound 1 µM
# [35] = second compound 10 µM, first compound 3.16 µM
# [36] = second compound 10 µM, first compound 10 µM
# 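Also: spheroids exposed to compounds for one week before readout.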
# 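For viability, T/C in this document: percent of DMSO vehicle wells luminescence so 100% = untreated viability.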
structure (smiles),measurement,setting,value
CC1COCCN1c1cc(-c2ccnn2C)c2ccnc(-c3ccn[nH]3)c2n1 (stereo not drawn) + COC1C(OC(N)=O)C(O)C(Oc2ccc3c(O)c(NC(=O)c4ccc(O)c(CC=C(C)C)c4)c(=O)oc3c2C)OC1(C)C,IC50,second compound 0.0316 µM,> 10000 nM
same,IC50,second compound 0.1 µM,> 10000 nM
same,IC50,second compound 0.316 µM,> 10000 nM
same,IC50,second compound 1 µM,> 10000 nM
same,IC50,second compound 3.16 µM,> 10000 nM
same,IC50,second compound 10 µM,> 10000 nM
same,"viability, T/C",[1],87.7%
same,"viability, T/C",[2],62%
same,"viability, T/C",[3],42.2%
same,"viability, T/C",[4],40%
same,"viability, T/C",[5],85.1%
same,"viability, T/C",[6],67.3%
same,"viability, T/C",[7],90.1%
same,"viability, T/C",[8],52.9%
same,"viability, T/C",[9],39.8%
same,"viability, T/C",[10],46.1%
same,"viability, T/C",[11],87.3%
same,"viability, T/C",[12],79.7%
same,"viability, T/C",[13],96.5%
same,"viability, T/C",[14],51.9%
same,"viability, T/C",[15],35.3%
same,"viability, T/C",[16],39%
same,"viability, T/C",[17],88.5%
same,"viability, T/C",[18],77%
same,"viability, T/C",[19],77.5%
same,"viability, T/C",[20],58.1%
same,"viability, T/C",[21],43.3%
same,"viability, T/C",[22],34.5%
same,"viability, T/C",[23],77.9%
same,"viability, T/C",[24],63.5%
same,"viability, T/C",[25],82.6%
same,"viability, T/C",[26],64.6%
same,"viability, T/C",[27],39.9%
same,"viability, T/C",[28],32%
same,"viability, T/C",[29],88.1%
same,"viability, T/C",[30],78.4%
same,"viability, T/C",[31],82.7%
same,"viability, T/C",[32],55.2%
same,"viability, T/C",[33],46.2%
same,"viability, T/C",[34],33.2%
same,"viability, T/C",[35],81.1%
same,"viability, T/C",[36],71.7%
COc1cccc(OCCCN)c1-c1cc(Nc2cnc(C#N)cn2)n[nH]1 + Cc1cccc(N(C)C(=O)C2C(O)CCN2c2nc(C)cc(C(F)(F)F)c2C#N)c1,IC50,second compound 0.0316 µM,5.54 nM
same,IC50,second compound 0.1 µM,6.74 nM
same,IC50,second compound 0.316 µM,6.63 nM
same,IC50,second compound 1 µM,6.92 nM
same,IC50,second compound 3.16 µM,5.11 nM
same,IC50,second compound 10 µM,< 3.16 nM
same,"viability, T/C","second compound 0.0316 µM, first compound 0.00316 µM",65.4%
same,"viability, T/C","second compound 0.0316 µM, first compound 0.01 µM",30.4%
same,"viability, T/C",[1],30.1%
same,"viability, T/C",[2],26.9%
same,"viability, T/C",[3],36.6%
same,"viability, T/C",[4],43.4%
same,"viability, T/C","second compound 0.1 µM, first compound 0.00316 µM",72.7%
same,"viability, T/C","second compound 0.1 µM, first compound 0.01 µM",37.7%
same,"viability, T/C",[7],31.4%
same,"viability, T/C",[8],27.3%
same,"viability, T/C",[9],45.7%
same,"viability, T/C",[10],45.6%
same,"viability, T/C","second compound 0.316 µM, first compound 0.00316 µM",74.4%
same,"viability, T/C","second compound 0.316 µM, first compound 0.01 µM",32.5%
same,"viability, T/C",[13],35%
same,"viability, T/C",[14],30.1%
same,"viability, T/C",[15],51.8%
same,"viability, T/C",[16],32.2%
same,"viability, T/C","second compound 1 µM, first compound 0.00316 µM",77.7%
same,"viability, T/C","second compound 1 µM, first compound 0.01 µM",37.8%
same,"viability, T/C",[19],28.8%
same,"viability, T/C",[20],32.5%
same,"viability, T/C",[21],25.9%
same,"viability, T/C",[22],43.8%
same,"viability, T/C","second compound 3.16 µM, first compound 0.00316 µM",58.3%
same,"viability, T/C","second compound 3.16 µM, first compound 0.01 µM",39.3%
same,"viability, T/C",[25],30.4%
same,"viability, T/C",[26],35.7%
same,"viability, T/C",[27],29.8%
same,"viability, T/C",[28],50.1%
same,"viability, T/C","second compound 10 µM, first compound 0.00316 µM",68.1%
same,"viability, T/C","second compound 10 µM, first compound 0.01 µM",30.3%
same,"viability, T/C",[31],36.4%
same,"viability, T/C",[32],30.5%
same,"viability, T/C",[33],35.9%
same,"viability, T/C",[34],54.9%
COc1ccc([C@@H](O)c2cc(-c3ncnc4cc(N5CCOCC5)ccc34)c(F)cc2Cl)nn1 + COC1C(OC(N)=O)C(O)C(Oc2ccc3c(O)c(NC(=O)c4ccc(O)c(CC=C(C)C)c4)c(=O)oc3c2C)OC1(C)C,IC50,second compound 0.0316 µM,2650 nM
same,IC50,second compound 0.1 µM,1980 nM
same,IC50,second compound 0.316 µM,2190 nM
same,IC50,second compound 1 µM,2910 nM
same,IC50,second compound 3.16 µM,2360 nM
same,IC50,second compound 10 µM,1940 nM
same,"viability, T/C",[1],96.4%
same,"viability, T/C",[2],96%
same,"viability, T/C",[3],76.5%
same,"viability, T/C",[4],67.2%
same,"viability, T/C",[5],44.6%
same,"viability, T/C",[6],40.5%
same,"viability, T/C",[7],101%
same,"viability, T/C",[8],100%
same,"viability, T/C",[9],93.3%
same,"viability, T/C",[10],60%
same,"viability, T/C",[11],45.5%
same,"viability, T/C",[12],37.4%
same,"viability, T/C",[13],88.5%
same,"viability, T/C",[14],94.9%
same,"viability, T/C",[15],82.8%
same,"viability, T/C",[16],61.7%
same,"viability, T/C",[17],41.2%
same,"viability, T/C",[18],46.5%
same,"viability, T/C",[19],109%
same,"viability, T/C",[20],102%
same,"viability, T/C",[21],76%
same,"viability, T/C",[22],67.5%
same,"viability, T/C",[23],47.1%
same,"viability, T/C",[24],40%
same,"viability, T/C",[25],98.8%
same,"viability, T/C",[26],99.5%
same,"viability, T/C",[27],77.9%
same,"viability, T/C",[28],62%
same,"viability, T/C",[29],48.3%
same,"viability, T/C",[30],30.4%
same,"viability, T/C",[31],97.7%
same,"viability, T/C",[32],99.5%
same,"viability, T/C",[33],86.7%
same,"viability, T/C",[34],58.7%
same,"viability, T/C",[35],45.4%
same,"viability, T/C",[36],37%
CCc1cc2c(N3CCc4c(cc(Cn5ccnc5)cc4-c4cn(C)nc4C(F)(F)F)C3=O)ccnc2c(OC)n1 + COC1C(OC(N)=O)C(O)C(Oc2ccc3c(O)c(NC(=O)c4ccc(O)c(CC=C(C)C)c4)c(=O)oc3c2C)OC1(C)C,IC50,second compound 0.0316 µM,> 10000 nM
same,IC50,second compound 0.1 µM,> 10000 nM
same,IC50,second compound 0.316 µM,> 10000 nM
same,IC50,second compound 1 µM,> 10000 nM
same,IC50,second compound 3.16 µM,> 10000 nM
same,IC50,second compound 10 µM,> 10000 nM
same,"viability, T/C",[1],95.3%
same,"viability, T/C",[2],92.8%
same,"viability, T/C",[3],108%
same,"viability, T/C",[4],119%
same,"viability, T/C",[5],113%
same,"viability, T/C",[6],116%
same,"viability, T/C",[7],92.8%
same,"viability, T/C",[8],108%
same,"viability, T/C",[9],116%
same,"viability, T/C",[10],104%
same,"viability, T/C",[11],110%
same,"viability, T/C",[12],111%
same,"viability, T/C",[13],104%
same,"viability, T/C",[14],91%
same,"viability, T/C",[15],92.2%
same,"viability, T/C",[16],101%
same,"viability, T/C",[17],112%
same,"viability, T/C",[18],124%
same,"viability, T/C",[19],86.6%
same,"viability, T/C",[20],91.4%
same,"viability, T/C",[21],102%
same,"viability, T/C",[22],100%
same,"viability, T/C",[23],115%
same,"viability, T/C",[24],124%
same,"viability, T/C",[25],91.9%
same,"viability, T/C",[26],105%
same,"viability, T/C",[27],129%
same,"viability, T/C",[28],114%
same,"viability, T/C",[29],105%
same,"viability, T/C",[30],114%
same,"viability, T/C",[31],93%
same,"viability, T/C",[32],98.1%
same,"viability, T/C",[33],105%
same,"viability, T/C",[34],109%
same,"viability, T/C",[35],105%
same,"viability, T/C",[36],122%
